The results in this text go back to patent US20260257998A1, “ERR MODULATORS” (University of Health Sciences and Pharmacy in St. Louis, priority 2023, published 2026).

Molecules are shown by their SMILES. pEC50: −log10 of the molar value. Some results are limits rather than exact numbers.

The target of one assay is T1, ERRα (Homo sapiens, UniProt P11474).
T1 construct: expressed in transfected cells; host or cells: HEK293
T1 sequence (P11474 1-423): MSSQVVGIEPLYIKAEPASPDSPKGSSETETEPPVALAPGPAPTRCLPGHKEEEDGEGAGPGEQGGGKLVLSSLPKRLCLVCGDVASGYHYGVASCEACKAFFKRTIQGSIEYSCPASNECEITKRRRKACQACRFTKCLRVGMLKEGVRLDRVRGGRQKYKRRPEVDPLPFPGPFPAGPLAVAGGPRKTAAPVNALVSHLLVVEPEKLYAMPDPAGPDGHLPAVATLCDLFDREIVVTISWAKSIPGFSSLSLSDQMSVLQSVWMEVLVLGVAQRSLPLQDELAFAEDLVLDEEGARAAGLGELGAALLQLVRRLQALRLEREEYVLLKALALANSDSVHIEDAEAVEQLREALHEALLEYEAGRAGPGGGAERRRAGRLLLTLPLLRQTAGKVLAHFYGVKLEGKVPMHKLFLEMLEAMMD
The assay can be described thus: ERRE luciferase reporter assay in HEK293 cells transfected with pcDNA3.1 ERRα. In kind it is cell-based. Conditions: 24 hours treatment, luciferase activity. Set-up: key to EC50 (ERRα): ***<1 μM; **1-5 μM; *>5 μM; i.a. (inactive).

For another assay, the target named is T2, ERRγ (Homo sapiens, UniProt P62508).
T2 construct: expressed in transfected cells; host or cells: HEK293
T2 sequence (P62508 1-458): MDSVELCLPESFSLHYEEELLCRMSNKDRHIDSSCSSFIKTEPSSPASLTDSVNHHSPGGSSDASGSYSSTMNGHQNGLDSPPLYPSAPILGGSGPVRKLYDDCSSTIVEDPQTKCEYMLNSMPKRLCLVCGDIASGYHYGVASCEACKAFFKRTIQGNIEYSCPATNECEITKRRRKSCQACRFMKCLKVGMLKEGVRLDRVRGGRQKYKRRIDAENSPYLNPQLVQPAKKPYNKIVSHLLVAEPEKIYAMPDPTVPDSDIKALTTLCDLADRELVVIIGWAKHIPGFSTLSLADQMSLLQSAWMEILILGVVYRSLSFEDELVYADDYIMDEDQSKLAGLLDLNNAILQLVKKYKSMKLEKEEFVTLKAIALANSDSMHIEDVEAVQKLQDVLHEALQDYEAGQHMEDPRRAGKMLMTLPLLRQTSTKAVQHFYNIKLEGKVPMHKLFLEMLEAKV
In words: ERRE luciferase reporter assay in HEK293 cells transfected with pcDNA3.1 ERRγ. Set-up: key to EC50 (ERRγ): ***<1 μM; **1-5 μM; *>5 μM; i.a. (inactive). In kind it is cell-based. The following applies: 24 hours treatment, luciferase activity.

For orientation: pEC50 means −log10 of the EC50, conventionally taken in molar units. Consider `Oc1ccccc1C1=NNC(c2ccc(Br)cc2)C1` (stereo not shown) [Entry 95, 2-(5-(4-bromophenyl)-4,5-dihydro-1H-pyrazol-3-yl)phenol], for which the pEC50 on ERRα was over 6.00; at ERRγ it was 5.30 to 6.00.
`Brc1ccc(C2=NNC(c3ccc4ccccc4c3)C2)cc1` (stereo not shown) [Entry 81, 3-(4-bromophenyl)-5-(naphthalen-2-yl)-4,5-dihydro-1H-pyrazole]: the “EC50 (ERRα)” value at ERRα is recorded as “i.a”. Further, the “EC50 (ERRγ)” value at ERRγ was “i.a”.
`Oc1c(Br)cccc1C1CC(c2ccc(Br)cc2)=NN1` (stereo not shown) [Entry 35, 2-Bromo-6-(3-(4-bromophenyl)-4,5-dihydro-1H-pyrazol-5-yl)phenol]: the pEC50 at ERRα and on ERRγ was 5.30 to 6.00 each time.
Turning to `Oc1ccc(C2CC(c3cccc(F)c3)=NN2)cc1` (stereo not shown) [Entry 77, 4-(3-(3-fluorophenyl)-4,5-dihydro-1H-pyrazol-5-yl)phenol], the pEC50 on ERRα and on ERRγ was under 5.30 in each case.
`Oc1ccccc1C1CC(c2ccccn2)=NN1` (stereo not shown) [Entry 25, 2-(3-(Pyridin-2-yl)-4,5-dihydro-1H-pyrazol-5-yl)phenol]: the pEC50 at ERRα and at ERRγ was under 5.30 in each case.
As to `Cc1ccc(C2CC(c3ccc(Br)cc3)=NN2)c(O)c1` (stereo not shown) [Entry 61, 2-(3-(4-bromophenyl)-4,5-dihydro-1H-pyrazol-5-yl)-5-methylphenol], the “EC50 (ERRα)” value at ERRα is “i.a”. Also, on ERRγ, the pEC50 is under 5.30.
Regarding `COc1ccc(C2=NNC(c3cccc(Cl)c3O)C2)cc1` (stereo not shown) [Entry 58, 2-chloro-6-(3-(4-methoxyphenyl)-4,5-dihydro-1H-pyrazol-5-yl)phenol], the pEC50 on ERRα and at ERRγ was 5.30 to 6.00 each time.
In the case of `Oc1ccccc1C1=NNC(c2ccccc2)C1` (stereo not shown) [Entry 50, 2-(5-Phenyl-4,5-dihydro-1H-pyrazol-3-yl)phenol], the pEC50 is over 6.00 on ERRα and 5.30 to 6.00 at ERRγ.
As to `Oc1ccc(C2CC(c3cccc(C(F)(F)F)c3)=NN2)cc1` (stereo not shown) [Entry 82, 4-(3-(3-(trifluoromethyl)phenyl)-4,5-dihydro-1H-pyrazol-5-yl)phenol], the “EC50 (ERRα)” value at ERRα is listed as “i.a”. Also, the “EC50 (ERRγ)” value on ERRγ was “i.a”.
Turning to `Cc1nc[nH]c1C1CC(c2ccc(Br)cc2)=NN1` (stereo not shown) [Entry 105, 3-(4-bromophenyl)-5-(4-methyl-1H-imidazol-5-yl)-4,5-dihydro-1H-pyrazole], the pEC50 on ERRα and at ERRγ was under 5.30 each time.
For the molecule `COc1cccc(C2=NN(C(C)=O)C(c3ccccc3O)C2)c1` (stereo not shown) [Entry 13, 1-(5-(2-Hydroxyphenyl)-3-(3-methoxyphenyl)-4,5-dihydro-1H-pyrazol-1-yl)ethan-1-one], at ERRα, the “EC50 (ERRα)” value was “i.a”. Besides, at ERRγ, the “EC50 (ERRγ)” value is recorded as “i.a”.
